Test results taken from ChEMBL document CHEMBL5678818, “Discovery of potent SOS1 inhibitors that block RAS activation via disruption of the RAS-SOS1 interaction” (Proc Natl Acad Sci U S A, 2019).

Key:
[1] = target: Dual specificity protein kinase CLK2 (Homo sapiens) (UniProt P49760); experiment: Inhibition of CLK2 (unknown origin) assessed as residual activity at 1000 nM by KINOMEscan analysis relative to control
[2] = tested on: Phosphatidylinositol 4,5-bisphosphate 3-kinase catalytic subunit alpha isoform (Homo sapiens), P42336 [M1043I]; experiment: Inhibition of PIK3CA M1043I mutant (unknown origin) assessed as residual activity at 1000 nM by KINOMEscan analysis relative to control
Sequence of Phosphatidylinositol 4,5-bisphosphate 3-kinase catalytic subunit alpha isoform (Homo sapiens), P42336 [M1043I] (P42336 whole entry M1043I, canonical isoform): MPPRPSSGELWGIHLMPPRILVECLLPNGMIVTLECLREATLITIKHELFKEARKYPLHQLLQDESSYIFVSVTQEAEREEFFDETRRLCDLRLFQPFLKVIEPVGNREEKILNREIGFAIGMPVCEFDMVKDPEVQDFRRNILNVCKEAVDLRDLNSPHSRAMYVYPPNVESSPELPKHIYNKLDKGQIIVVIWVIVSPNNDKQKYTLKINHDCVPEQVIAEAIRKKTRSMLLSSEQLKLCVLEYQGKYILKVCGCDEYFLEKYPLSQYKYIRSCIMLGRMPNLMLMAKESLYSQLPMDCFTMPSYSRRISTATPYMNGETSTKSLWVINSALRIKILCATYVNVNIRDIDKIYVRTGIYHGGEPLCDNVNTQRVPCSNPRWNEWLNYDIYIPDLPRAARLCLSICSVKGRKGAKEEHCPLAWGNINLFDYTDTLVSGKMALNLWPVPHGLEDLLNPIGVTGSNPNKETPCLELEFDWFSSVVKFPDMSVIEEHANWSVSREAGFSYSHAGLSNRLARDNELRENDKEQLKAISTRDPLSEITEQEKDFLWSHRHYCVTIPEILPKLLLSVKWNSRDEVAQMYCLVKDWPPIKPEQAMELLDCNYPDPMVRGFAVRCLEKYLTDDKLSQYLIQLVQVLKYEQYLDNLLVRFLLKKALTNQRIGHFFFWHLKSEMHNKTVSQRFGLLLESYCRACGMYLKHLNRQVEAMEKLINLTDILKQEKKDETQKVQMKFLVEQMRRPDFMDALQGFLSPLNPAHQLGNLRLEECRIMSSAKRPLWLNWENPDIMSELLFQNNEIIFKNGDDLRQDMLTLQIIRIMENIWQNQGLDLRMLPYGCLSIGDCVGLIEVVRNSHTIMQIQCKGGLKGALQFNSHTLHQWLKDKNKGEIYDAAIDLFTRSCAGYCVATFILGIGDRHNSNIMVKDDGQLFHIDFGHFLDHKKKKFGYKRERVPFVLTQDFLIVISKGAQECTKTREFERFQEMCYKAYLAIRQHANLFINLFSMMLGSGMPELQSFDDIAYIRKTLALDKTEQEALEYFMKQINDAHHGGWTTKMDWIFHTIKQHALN

[3] = target: T1, Dual specificity mitogen-activated protein kinase kinase 6 (Homo sapiens) (UniProt P52564); experiment: Inhibition of MEK6 (unknown origin) assessed as residual activity at 1000 nM by KINOMEscan analysis relative to control
T1 sequence (whole entry): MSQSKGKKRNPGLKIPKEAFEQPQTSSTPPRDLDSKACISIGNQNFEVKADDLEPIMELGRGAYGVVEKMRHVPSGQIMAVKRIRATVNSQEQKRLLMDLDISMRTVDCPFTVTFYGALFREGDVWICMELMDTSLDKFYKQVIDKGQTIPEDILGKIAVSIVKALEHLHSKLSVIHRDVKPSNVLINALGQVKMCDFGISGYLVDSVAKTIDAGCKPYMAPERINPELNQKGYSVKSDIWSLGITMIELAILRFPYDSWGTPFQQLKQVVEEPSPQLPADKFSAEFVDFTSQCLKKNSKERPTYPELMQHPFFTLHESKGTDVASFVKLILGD

[4] = target: Myosin light chain kinase 2, skeletal/cardiac muscle (Homo sapiens) (UniProt Q9H1R3); experiment: Inhibition of MYLK2 (unknown origin) assessed as residual activity at 1000 nM by KINOMEscan analysis relative to control
Sequence of Myosin light chain kinase 2, skeletal/cardiac muscle (Homo sapiens) (Q9H1R3 whole entry, the tested form may be a part): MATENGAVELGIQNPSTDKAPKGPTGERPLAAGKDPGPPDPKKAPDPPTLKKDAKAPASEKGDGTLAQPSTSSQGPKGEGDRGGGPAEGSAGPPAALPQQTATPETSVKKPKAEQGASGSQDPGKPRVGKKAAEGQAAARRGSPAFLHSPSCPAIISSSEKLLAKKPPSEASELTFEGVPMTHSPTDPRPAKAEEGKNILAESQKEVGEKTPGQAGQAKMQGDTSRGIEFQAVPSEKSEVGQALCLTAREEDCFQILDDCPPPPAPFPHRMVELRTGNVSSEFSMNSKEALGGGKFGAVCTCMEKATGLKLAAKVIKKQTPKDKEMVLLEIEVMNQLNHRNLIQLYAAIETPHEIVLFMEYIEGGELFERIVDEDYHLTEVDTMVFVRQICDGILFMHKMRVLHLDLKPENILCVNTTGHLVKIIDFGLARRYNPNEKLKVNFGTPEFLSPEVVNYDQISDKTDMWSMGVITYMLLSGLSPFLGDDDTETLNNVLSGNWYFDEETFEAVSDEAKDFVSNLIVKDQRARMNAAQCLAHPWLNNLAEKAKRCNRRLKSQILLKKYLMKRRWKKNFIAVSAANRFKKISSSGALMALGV

[5] = target: Ribosomal protein S6 kinase alpha-5 (Homo sapiens) (UniProt O75582); experiment: Inhibition of C-terminal RPS6KA5 kinetic domain 2 (unknown origin) assessed as residual activity at 1000 nM by KINOMEscan analysis relative to control
[6] = target: T2, Serine/threonine-protein kinase D2 (Homo sapiens) (UniProt Q9BZL6); experiment: Inhibition of PRKD2 (unknown origin) assessed as residual activity at 1000 nM by KINOMEscan analysis relative to control
T2 sequence (whole entry): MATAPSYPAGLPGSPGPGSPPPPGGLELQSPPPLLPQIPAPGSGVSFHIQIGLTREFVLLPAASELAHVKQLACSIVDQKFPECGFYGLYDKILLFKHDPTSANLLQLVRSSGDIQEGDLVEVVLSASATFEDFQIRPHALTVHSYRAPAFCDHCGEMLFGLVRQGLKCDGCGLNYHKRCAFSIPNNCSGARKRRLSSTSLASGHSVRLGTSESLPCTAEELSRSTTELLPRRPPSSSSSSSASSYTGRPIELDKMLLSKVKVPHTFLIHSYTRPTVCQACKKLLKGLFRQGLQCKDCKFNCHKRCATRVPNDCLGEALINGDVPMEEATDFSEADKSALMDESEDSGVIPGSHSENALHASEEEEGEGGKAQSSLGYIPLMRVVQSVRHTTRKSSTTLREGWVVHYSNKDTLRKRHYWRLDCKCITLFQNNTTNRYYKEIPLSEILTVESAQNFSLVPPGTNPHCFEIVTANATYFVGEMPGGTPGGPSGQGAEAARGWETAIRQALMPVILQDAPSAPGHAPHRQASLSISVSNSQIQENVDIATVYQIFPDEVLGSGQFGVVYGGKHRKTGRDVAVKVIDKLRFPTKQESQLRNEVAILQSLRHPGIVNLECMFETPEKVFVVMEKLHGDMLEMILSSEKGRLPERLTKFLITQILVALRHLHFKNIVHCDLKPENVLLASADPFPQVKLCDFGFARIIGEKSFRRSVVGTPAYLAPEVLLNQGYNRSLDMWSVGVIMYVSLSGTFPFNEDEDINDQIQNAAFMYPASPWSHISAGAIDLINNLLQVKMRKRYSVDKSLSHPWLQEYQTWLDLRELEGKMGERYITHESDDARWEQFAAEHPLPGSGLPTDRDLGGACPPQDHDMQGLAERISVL

[7] = target: Tyrosine-protein kinase Lck (Homo sapiens) (UniProt P06239); experiment: Inhibition of LCK (unknown origin) assessed as residual activity at 1000 nM by KINOMEscan analysis relative to control
[8] = target: T3, Inhibitor of nuclear factor kappa-B kinase subunit beta (Homo sapiens) (UniProt O14920); experiment: Inhibition of IKK-beta (unknown origin) assessed as residual activity at 1000 nM by KINOMEscan analysis relative to control
T3 sequence (whole entry): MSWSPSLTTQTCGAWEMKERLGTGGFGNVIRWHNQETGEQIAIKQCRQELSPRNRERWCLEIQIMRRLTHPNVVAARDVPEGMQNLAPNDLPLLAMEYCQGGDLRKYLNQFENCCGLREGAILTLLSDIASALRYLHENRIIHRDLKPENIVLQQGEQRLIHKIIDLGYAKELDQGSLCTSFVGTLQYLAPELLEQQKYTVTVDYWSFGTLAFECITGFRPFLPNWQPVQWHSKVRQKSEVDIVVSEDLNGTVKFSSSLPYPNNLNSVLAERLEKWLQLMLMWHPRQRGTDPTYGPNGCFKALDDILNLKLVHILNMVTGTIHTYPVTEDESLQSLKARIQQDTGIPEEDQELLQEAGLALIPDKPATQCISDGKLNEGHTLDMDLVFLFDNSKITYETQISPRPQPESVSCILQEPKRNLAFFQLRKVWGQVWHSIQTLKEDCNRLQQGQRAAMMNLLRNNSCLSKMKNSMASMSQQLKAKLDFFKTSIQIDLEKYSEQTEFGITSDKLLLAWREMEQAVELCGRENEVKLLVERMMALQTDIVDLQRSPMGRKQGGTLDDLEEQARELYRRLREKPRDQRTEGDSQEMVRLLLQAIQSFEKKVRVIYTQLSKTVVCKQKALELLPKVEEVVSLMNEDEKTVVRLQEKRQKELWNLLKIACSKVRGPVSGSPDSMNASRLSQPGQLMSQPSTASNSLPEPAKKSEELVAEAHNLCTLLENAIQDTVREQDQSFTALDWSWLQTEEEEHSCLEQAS

[9] = target: Vascular endothelial growth factor receptor 2 (Homo sapiens) (UniProt P35968); experiment: Inhibition of VEGFR2 (unknown origin) assessed as residual activity at 1000 nM by KINOMEscan analysis relative to control
Sequence of Vascular endothelial growth factor receptor 2 (Homo sapiens) (P35968 whole entry): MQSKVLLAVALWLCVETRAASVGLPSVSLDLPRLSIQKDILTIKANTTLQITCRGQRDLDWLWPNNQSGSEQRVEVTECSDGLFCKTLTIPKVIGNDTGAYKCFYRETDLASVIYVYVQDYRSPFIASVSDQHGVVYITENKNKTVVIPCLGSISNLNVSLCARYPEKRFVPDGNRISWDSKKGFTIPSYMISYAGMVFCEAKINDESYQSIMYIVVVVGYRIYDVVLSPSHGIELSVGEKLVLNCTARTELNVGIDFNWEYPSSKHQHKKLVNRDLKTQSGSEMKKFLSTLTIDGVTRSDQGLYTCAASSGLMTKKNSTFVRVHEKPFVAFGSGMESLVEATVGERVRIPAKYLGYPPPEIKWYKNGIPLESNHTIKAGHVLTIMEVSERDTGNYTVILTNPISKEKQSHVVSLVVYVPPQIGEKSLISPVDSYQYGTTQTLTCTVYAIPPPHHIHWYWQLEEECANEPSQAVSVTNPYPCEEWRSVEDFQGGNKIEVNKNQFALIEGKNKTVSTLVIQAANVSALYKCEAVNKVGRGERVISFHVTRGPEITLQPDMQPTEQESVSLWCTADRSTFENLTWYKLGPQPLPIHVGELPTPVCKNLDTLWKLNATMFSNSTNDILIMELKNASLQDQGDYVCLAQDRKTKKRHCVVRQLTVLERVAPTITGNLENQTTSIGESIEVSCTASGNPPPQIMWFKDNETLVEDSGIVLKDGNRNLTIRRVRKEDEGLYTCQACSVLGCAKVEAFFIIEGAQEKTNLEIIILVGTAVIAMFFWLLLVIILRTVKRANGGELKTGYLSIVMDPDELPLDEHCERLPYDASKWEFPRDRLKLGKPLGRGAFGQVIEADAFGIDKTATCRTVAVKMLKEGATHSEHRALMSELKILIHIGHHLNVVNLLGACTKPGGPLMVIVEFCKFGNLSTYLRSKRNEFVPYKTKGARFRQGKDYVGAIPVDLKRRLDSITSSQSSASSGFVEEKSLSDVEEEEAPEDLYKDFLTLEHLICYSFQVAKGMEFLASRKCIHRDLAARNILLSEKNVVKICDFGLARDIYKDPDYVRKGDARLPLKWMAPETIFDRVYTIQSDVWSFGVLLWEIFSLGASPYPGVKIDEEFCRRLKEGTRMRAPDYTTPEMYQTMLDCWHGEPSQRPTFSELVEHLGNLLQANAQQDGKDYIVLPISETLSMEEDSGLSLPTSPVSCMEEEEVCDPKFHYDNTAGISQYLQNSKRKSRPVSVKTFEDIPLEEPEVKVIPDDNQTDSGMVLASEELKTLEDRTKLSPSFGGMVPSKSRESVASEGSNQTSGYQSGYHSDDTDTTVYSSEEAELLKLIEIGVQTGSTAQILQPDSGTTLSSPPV

[10] = target: 5'-AMP-activated protein kinase catalytic subunit alpha-2 (Homo sapiens) (UniProt P54646); experiment: Inhibition of AMPK-alpha2 (unknown origin) assessed as residual activity at 1000 nM by KINOMEscan analysis relative to control
Sequence of 5'-AMP-activated protein kinase catalytic subunit alpha-2 (Homo sapiens) (P54646 whole entry, looked up): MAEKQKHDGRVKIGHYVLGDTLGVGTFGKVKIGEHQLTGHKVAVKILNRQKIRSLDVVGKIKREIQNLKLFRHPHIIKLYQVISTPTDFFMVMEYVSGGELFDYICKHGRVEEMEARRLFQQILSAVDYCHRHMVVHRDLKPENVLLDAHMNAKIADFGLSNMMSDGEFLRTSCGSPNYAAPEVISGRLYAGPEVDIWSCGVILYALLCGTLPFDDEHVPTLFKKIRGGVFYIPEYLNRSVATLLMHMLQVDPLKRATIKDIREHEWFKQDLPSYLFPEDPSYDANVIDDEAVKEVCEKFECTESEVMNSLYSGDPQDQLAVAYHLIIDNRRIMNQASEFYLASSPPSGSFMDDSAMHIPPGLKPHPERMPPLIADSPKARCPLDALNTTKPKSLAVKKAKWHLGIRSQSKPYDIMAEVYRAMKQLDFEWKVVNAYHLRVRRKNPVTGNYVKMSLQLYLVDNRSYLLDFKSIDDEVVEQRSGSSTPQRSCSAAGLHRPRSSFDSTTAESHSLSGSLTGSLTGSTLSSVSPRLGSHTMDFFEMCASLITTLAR

[11] = target: Cyclin-dependent kinase 11B (Homo sapiens) (UniProt P21127); experiment: Inhibition of CDK11 (unknown origin) assessed as residual activity at 1000 nM by KINOMEscan analysis relative to control
[12] = target: Serine/threonine-protein kinase MAK (Homo sapiens) (UniProt P20794); experiment: Inhibition of MAK (unknown origin) assessed as residual activity at 1000 nM by KINOMEscan analysis relative to control
Sequence of Serine/threonine-protein kinase MAK (Homo sapiens) (P20794 whole entry, looked up): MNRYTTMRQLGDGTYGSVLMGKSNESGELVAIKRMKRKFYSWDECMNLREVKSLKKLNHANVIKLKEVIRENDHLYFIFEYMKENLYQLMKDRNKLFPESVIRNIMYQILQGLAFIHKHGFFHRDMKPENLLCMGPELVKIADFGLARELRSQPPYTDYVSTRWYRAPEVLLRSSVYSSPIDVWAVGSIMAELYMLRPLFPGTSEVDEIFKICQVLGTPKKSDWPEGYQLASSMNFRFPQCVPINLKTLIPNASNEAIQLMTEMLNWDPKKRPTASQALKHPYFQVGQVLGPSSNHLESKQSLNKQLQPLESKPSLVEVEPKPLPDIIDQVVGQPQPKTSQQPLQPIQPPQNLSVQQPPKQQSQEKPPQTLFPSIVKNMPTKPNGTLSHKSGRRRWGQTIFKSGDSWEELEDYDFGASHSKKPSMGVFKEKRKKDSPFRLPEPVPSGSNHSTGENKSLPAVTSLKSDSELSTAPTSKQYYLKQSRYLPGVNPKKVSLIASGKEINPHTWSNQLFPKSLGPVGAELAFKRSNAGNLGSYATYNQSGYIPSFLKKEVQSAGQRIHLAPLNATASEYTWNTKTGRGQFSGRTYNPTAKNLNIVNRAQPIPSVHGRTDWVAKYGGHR

Sequence of Dual specificity protein kinase CLK2 (Homo sapiens) (P49760 whole entry, looked up, canonical isoform): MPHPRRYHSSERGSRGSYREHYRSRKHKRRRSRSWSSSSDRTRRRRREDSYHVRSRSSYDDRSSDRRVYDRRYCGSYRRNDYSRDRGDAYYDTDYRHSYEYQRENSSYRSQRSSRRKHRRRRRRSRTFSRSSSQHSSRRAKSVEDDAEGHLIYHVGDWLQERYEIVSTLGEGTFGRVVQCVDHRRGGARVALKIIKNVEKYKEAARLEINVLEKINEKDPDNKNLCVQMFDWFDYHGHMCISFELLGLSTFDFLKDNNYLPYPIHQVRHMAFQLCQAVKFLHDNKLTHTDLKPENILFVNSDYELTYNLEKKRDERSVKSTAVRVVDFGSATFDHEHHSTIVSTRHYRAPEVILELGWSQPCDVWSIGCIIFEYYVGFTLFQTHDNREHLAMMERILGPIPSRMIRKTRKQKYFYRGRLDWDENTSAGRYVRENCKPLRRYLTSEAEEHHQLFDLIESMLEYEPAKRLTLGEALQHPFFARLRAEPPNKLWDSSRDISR

Compound	Activity [1] [%]	Activity [2] [%]	Activity [3] [%]	Activity [4] [%]	Activity [5] [%]	Activity [6] [%]	Activity [7] [%]	Activity [8] [%]	Activity [9] [%]	Activity [10] [%]	Activity [11] [%]	Activity [12] [%]
COc1cc2nc(C)nc(N[C@H](C)c3cccc(-c4cn[nH]c4)c3)c2cc1OC	78	100	91	73	100	100	56	73	100	81	100	80
COc1cc2ncnc(N[C@H](C)c3cccc4ccccc34)c2cc1OC	100	92	100	100	92	90	70	82	78	98	84	100
